Numbered stars: 1 amine (or outer) side, 2 acyl side, 3 side chain; on linkers, the order of the positions; unused ones are H or OH. Square brackets hold non-standard residues; d marks the D form. Peptide text beside a SMILES is read from it. * marks the point of attachment. X1 = N#Cc1cnc2ccc(-c3c(-c4ccc(F)c(Cl)c4)ncn3CCOCN*)nn12; C18 diacid = O=C(O)CCCCCCCCCCCCCCCCC(=O)*; C16 diacid = O=C(O)CCCCCCCCCCCCCCC(=O)*; γGlu = O=C(O)[C@H](CCC(=O)[*:2])N[*:1]; PABC = O=C(OCc1ccc(N[*:1])cc1)[*:2]; AEEA = NCCOCCOCC(=O)O
Key:
[1] = Ratio of AUC in tumor to blood in C57BL/6 mouse xenografted mouse MC38 cells at 1.88 mg/kg,iv and measured after 72 hrs by LC-MS/MS analysis; type: ADME, organism-based; conditions: read-out: Ratio AUC
[2] = AUC (0 to 72 hrs) in C57BL/6 mouse tumor xenografted mouse MC38 cells at 1.88 mg/kg,iv and measured after 72 hrs by LC-MS/MS analysis; type: ADME, organism-based, Neoplasm, MC-38; parameters: dose 1.88 mg/kg, time 72 hrs, route iv
[3] = Ratio of AUC in heart to blood in C57BL/6 mouse xenografted mouse MC38 cells at 1.88 mg/kg,iv and measured after 72 hrs by LC-MS/MS analysis; type: ADME, organism-based; conditions: read-out: Ratio AUC
[4] = Ratio of AUC in tumor to heart in C57BL/6 mouse xenografted mouse MC38 cells at 1.88 mg/kg,iv and measured after 72 hrs by LC-MS/MS analysis; type: ADME, organism-based; conditions: in vivo
[5] = AUC (0 to 72 hrs) in C57BL/6 mouse blood xenografted mouse MC38 cells at 1.88 mg/kg,iv and measured after 72 hrs by LC-MS/MS analysis; type: ADME, organism-based, MC-38; parameters: dose 1.88 mg/kg, time 72 hrs, route iv
[6] = Cmax in C57BL/6 mouse tumor xenografted mouse MC38 cells at 1.88 mg/kg,iv and measured after 72 hrs by LC-MS/MS analysis; type: ADME, organism-based, Neoplasm, MC-38; parameters: dose 1.88 mg/kg, time 72 hrs, route iv
[7] = Tmax in C57BL/6 mouse heart xenografted mouse MC38 cells at 1.88 mg/kg,iv and measured after 72 hrs by LC-MS/MS analysis; type: ADME, organism-based, MC-38
[8] = Cmax in C57BL/6 mouse blood xenografted mouse MC38 cells at 1.88 mg/kg,iv and measured after 72 hrs by LC-MS/MS analysis; type: ADME, organism-based, MC-38; parameters: time 72 hrs, dose 1.88 mg/kg, route iv
[9] = Cmax in C57BL/6 mouse heart xenografted mouse MC38 cells at 1.88 mg/kg,iv and measured after 72 hrs by LC-MS/MS analysis; type: ADME, organism-based, MC-38; parameters: time 72 hrs, dose 1.88 mg/kg, route iv
[10] = Cmax in C57BL/6 mouse xenografted with mouse MC38 cells at 3.75 mg/kg,iv and measured after 4 weeks by LC-MS/MS analysis; type: ADME, organism-based, MC-38; parameters: dose 3.75 mg/kg, time 4 weeks, route iv; conditions: in vivo
[11] = AUC (0 to 24 hrs) in rat at 3 mg/kg,iv for 3 months; type: ADME, organism-based; parameters: time 3 months, dose 3 mg/kg, route iv; conditions: in vivo
[12] = Tmax in C57BL/6 mouse blood xenografted mouse MC38 cells at 1.88 mg/kg,iv and measured after 72 hrs by LC-MS/MS analysis; type: ADME, organism-based, MC-38
[13] = AUC (0 to 72 hrs) in C57BL/6 mouse heart xenografted mouse MC38 cells at 1.88 mg/kg,iv and measured after 72 hrs by LC-MS/MS analysis; type: ADME, organism-based, MC-38; parameters: time 72 hrs, dose 1.88 mg/kg, route iv
[14] = Tmax in C57BL/6 mouse tumor xenografted mouse MC38 cells at 1.88 mg/kg,iv and measured after 72 hrs by LC-MS/MS analysis; type: ADME, organism-based, Neoplasm, MC-38
[15] = AUC (0 to 72 hrs) in C57BL/6 mouse xenografted with mouse MC38 cells at 3.75 mg/kg,iv and measured after 4 weeks by LC-MS/MS analysis; type: ADME, organism-based, MC-38; parameters: dose 3.75 mg/kg, time 4 weeks, route iv; conditions: in vivo
[16] = Stability in mouse plasma assessed as parent compound remaining after 24 hrs by HPLC-MS analysis; type: ADME, cell-free; conditions: read-out: Stability
[17] = Stability in rat plasma assessed as parent compound remaining after 24 hrs by HPLC-MS analysis; type: ADME, cell-free; conditions: read-out: Stability
[18] = AUC in C57BL/6 mouse plasma at 6 mg/kg,iv and measured upto 24 hrs by LC-MS/MS analysis; type: ADME, organism-based; parameters: dose 6 mg/kg, time < 24 hrs, route iv
[19] = Drug concentration in C57BL/6 mouse plasma at 6 mg/kg,iv and measured after 24 hrs by LC-MS/MS analysis; type: ADME, organism-based

N#Cc1cnc2ccc(-c3c(-c4ccc(F)c(Cl)c4)ncn3CCO)nn12
Kp at 72 h [1]: 1.1 | AUC(0-t) at 72 h [2]: 6.1 µM·h | Kp at 72 h [3]: 1.7 | Ratio AUC [4]: 0.61 | AUC(0-t) at 72 h [5]: 5.8 µM·h | Cmax [6]: 1500 nM | Tmax [7]: 1 h | Cmax [8]: 1400 nM | Cmax [9]: 2500 nM | Cmax [10]: 1500 nM | AUC(0-t) at 2190 h [11]: 27 µM·h | Tmax [12]: 1 h | AUC(0-t) at 72 h [13]: 10 µM·h | Tmax [14]: 1 h | AUC(0-t) at 672 h [15]: 39 µM·h

CC(=O)N[C@@H](CC(C)C)C(=O)N[C@@H](CO)C(=O)NCC(=O)N[C@@H](CCCCN)C(=O)Nc1ccc(COC(=O)NCOCCn2cnc(-c3ccc(F)c(Cl)c3)c2-c2ccc3ncc(C#N)n3n2)cc1 (Ac-LSGK[PABC]-X1)
remaining at 24 h [16]: 6%

CC(C)C[C@H](NC(=O)COCCOCCNC(=O)COCCOCCNC(=O)CC[C@H](NC(=O)CCCCCCCCCCCCCCC(=O)O)C(=O)O)C(=O)N[C@@H](CO)C(=O)NCC(=O)N[C@@H](CCCCN)C(=O)Nc1ccc(COC(=O)NCOCCn2cnc(-c3ccc(F)c(Cl)c3)c2-c2ccc3ncc(C#N)n3n2)cc1 ({C16 diacid-γGlu-AEEA-AEEA}-LSGK[PABC]-X1)
remaining at 24 h [16]: 54%

CC(C)C[C@H](NC(=O)COCCOCCNC(=O)COCCOCCNC(=O)COCCOCCNC(=O)CC[C@H](NC(=O)CCCCCCCCCCCCCCCCC(=O)O)C(=O)O)C(=O)N[C@@H](CO)C(=O)NCC(=O)N[C@@H](CCCCN)C(=O)Nc1ccc(COC(=O)NCOCCn2cnc(-c3ccc(F)c(Cl)c3)c2-c2ccc3ncc(C#N)n3n2)cc1 ({C18 diacid-γGlu-AEEA-AEEA-AEEA}-LSGK[PABC]-X1)
remaining at 24 h [16]: 91% | remaining at 24 h [17]: 76% | AUC at 24 h [18]: 270 µM·h | concentration at 24 h [19]: 5200 nM

From ChEMBL document CHEMBL5260852, “Long-Acting Tumor-Activated Prodrug of a TGFβR Inhibitor” (J Med Chem, 2021)
